# Data reported in US11987588B2, “Modulators of the beta-3 adrenergic receptor useful for the treatment or prevention of heart failure and disorders related thereto” (Arena Pharmaceuticals, Inc., priority 2017, dated 2024).
# Target: Beta-3 Adrenergic Receptor (Homo sapiens (Human), UniProt P13945)
# Test: Homogeneous Time-Resolved Fluorescence (HTRF) cAMP antagonist assay, IC50 determination
# Format: cell-based
# Settings: CHO-K1 cells stably expressing recombinant receptor, isoproterenol at EC90
# Method in brief: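 CHO-K1 cells stably expressing the recombinant receptor were preincubated with compound (10-point, 5-fold dilutions; top final typically 10 or 100 μM) in PBS with 1 mM IBMX, then stimulated with isoproterenol at its EC90 for 1 h at room temperature. cAMP was read by HTRF against an on-plate standard curve.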
# Beta-3 Adrenergic Receptor, sequence (P13945 whole entry, species assumed): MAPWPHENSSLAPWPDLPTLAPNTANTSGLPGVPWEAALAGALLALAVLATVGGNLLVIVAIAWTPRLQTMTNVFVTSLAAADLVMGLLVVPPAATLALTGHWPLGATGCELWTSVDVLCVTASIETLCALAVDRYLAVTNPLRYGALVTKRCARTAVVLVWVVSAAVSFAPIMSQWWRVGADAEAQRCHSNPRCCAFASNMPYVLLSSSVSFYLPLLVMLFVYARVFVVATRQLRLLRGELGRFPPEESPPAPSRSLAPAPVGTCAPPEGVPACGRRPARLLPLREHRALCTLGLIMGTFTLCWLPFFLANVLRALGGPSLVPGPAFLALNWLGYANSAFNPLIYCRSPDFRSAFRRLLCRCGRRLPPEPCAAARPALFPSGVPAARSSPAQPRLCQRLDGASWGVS
row,SMILES,IC50
1,"CNS(=O)(=O)c1cccc(OC[C@@H](O)CN[C@H]2COC3(CCN(S(=O)(=O)c4cc(-c5ccc(CN)cc5)ccc4OC)CC3)C2)c1 [Compound 385, 3-((S)-3-((R)-8-(4′-(aminomethyl)-4-methoxybiphenyl-3-ylsulfonyl)-1-oxa-8-azaspiro[4.5]decan-3-ylamino)-2-hydroxypropoxy)-N-methylbenzenesulfonamide]",11 nM
2,"CNS(=O)(=O)c1cccc(OC[C@@H](O)CNC2COC3(CCN(S(=O)(=O)c4cncc(OC)c4)CC3)C2)c1 (stereo partly drawn) [Compound 386, 3-((2S)-2-hydroxy-3-(8-(5-methoxypyridin-3-ylsulfonyl)-1-oxa-8-azaspiro[4.5]decan-3-ylamino)propoxy)-N-methylbenzenesulfonamide]",57.9 nM
3,"CNS(=O)(=O)c1cccc(OC[C@@H](O)CNC2COC3(CCN(S(=O)(=O)c4cccc(-c5ccc(CN)nc5)c4)CC3)C2)c1 (stereo partly drawn) [Compound 387, 3-((2S)-3-(8-(3-(6-(aminomethyl)pyridin-3-yl)phenylsulfonyl)-1-oxa-8-azaspiro[4.5]decan-3-ylamino)-2-hydroxypropoxy)-N-methylbenzenesulfonamide]",30.8 nM
4,"CNS(=O)(=O)c1cccc(OC[C@@H](O)CNC2COC3(CCN(S(=O)(=O)c4cncc(-c5ccc(CN)nc5)c4)CC3)C2)c1 (stereo partly drawn) [Compound 388, 3-((2S)-3-(8-(6′-(aminomethyl)-3,3′-bipyridin-5-ylsulfonyl)-1-oxa-8-azaspiro[4.5]decan-3-ylamino)-2-hydroxypropoxy)-N-methylbenzenesulfonamide]",79.4 nM
5,"CNS(=O)(=O)c1cccc(OC[C@@H](O)CNC2COC3(CCN(S(=O)(=O)c4cccc(CN)c4)CC3)C2)c1 (stereo partly drawn) [Compound 389, 3-((2S)-3-(8-(3-(aminomethyl)phenylsulfonyl)-1-oxa-8-azaspiro[4.5]decan-3-ylamino)-2-hydroxypropoxy)-N-methylbenzenesulfonamide]",475 nM
6,"CNS(=O)(=O)c1cccc(OC[C@@H](O)CNC2COC3(CCN(S(=O)(=O)c4cccc(CO)c4)CC3)C2)c1 (stereo partly drawn) [Compound 390, 3-((2S)-2-hydroxy-3-(8-(3-(hydroxymethyl)phenylsulfonyl)-1-oxa-8-azaspiro[4.5]decan-3-ylamino)propoxy)-N-methylbenzenesulfonamide]",153 nM
7,"CNS(=O)(=O)c1cccc(OC[C@@H](O)CNC2COC3(CCN(S(=O)(=O)c4ccc(CN)cc4)CC3)C2)c1 (stereo partly drawn) [Compound 391, 3-((2S)-3-(8-(4-(aminomethyl)phenylsulfonyl)-1-oxa-8-azaspiro[4.5]decan-3-ylamino)-2-hydroxypropoxy)-N-methylbenzenesulfonamide]",446 nM
8,"CNS(=O)(=O)c1cccc(OC[C@@H](O)CNC2COC3(CCN(S(=O)(=O)c4ccc(CO)cc4)CC3)C2)c1 (stereo partly drawn) [Compound 392, 3-((2S)-2-hydroxy-3-(8-(4-(hydroxymethyl)phenylsulfonyl)-1-oxa-8-azaspiro[4.5]decan-3-ylamino)propoxy)-N-methylbenzenesulfonamide]",168 nM
9,"O=S(=O)(NCCF)c1cccc(OC[C@@H](O)CN[C@H]2COC3(CCN(S(=O)(=O)c4ccc5ncccc5c4)CC3)C2)c1 [Compound 393, N-(2-fluoroethyl)-3-((S)-2-hydroxy-3-((R)-8-(quinolin-6-ylsulfonyl)-1-oxa-8-azaspiro[4.5]decan-3-ylamino)propoxy)benzenesulfonamide]",141 nM
10,"O=S(=O)(NCCF)c1cccc(OC[C@@H](O)CN[C@H]2COC3(CCN(S(=O)(=O)c4cnc5ccccc5c4)CC3)C2)c1 [Compound 394, N-(2-fluoroethyl)-3-((S)-2-hydroxy-3-((R)-8-(quinolin-3-ylsulfonyl)-1-oxa-8-azaspiro[4.5]decan-3-ylamino)propoxy)benzenesulfonamide]",46.9 nM
11,"CNS(=O)(=O)c1cccc(OC[C@@H](O)CNC2COC3(CCN(S(=O)(=O)c4ccc(O)nc4)CC3)C2)c1 (stereo partly drawn) [Compound 395, 3-((2S)-2-hydroxy-3-(8-(6-hydroxypyridin-3-ylsulfonyl)-1-oxa-8-azaspiro[4.5]decan-3-ylamino)propoxy)-N-methylbenzenesulfonamide]",206 nM
12,"CNS(=O)(=O)c1cccc(OC[C@@H](O)CNC2COC3(CCN(S(=O)(=O)c4ccc(OC)nc4)CC3)C2)c1 (stereo partly drawn) [Compound 396, 3-((2S)-2-hydroxy-3-(8-(6-methoxypyridin-3-ylsulfonyl)-1-oxa-8-azaspiro[4.5]decan-3-ylamino)propoxy)-N-methylbenzenesulfonamide]",30.3 nM
13,"CNS(=O)(=O)c1cccc(OC[C@@H](O)CNC2COC3(CCN(S(=O)(=O)c4cc(OC)cnc4C)CC3)C2)c1 (stereo partly drawn) [Compound 397, 3-((2S)-2-hydroxy-3-(8-(5-methoxy-2-methylpyridin-3-ylsulfonyl)-1-oxa-8-azaspiro[4.5]decan-3-ylamino)propoxy)-N-methylbenzenesulfonamide]",115 nM
14,"CNS(=O)(=O)c1cccc(OC[C@@H](O)CNC2COC3(CCN(S(=O)(=O)c4ccccc4OC)CC3)C2)c1 (stereo partly drawn) [Compound 398, 3-((2S)-2-hydroxy-3-(8-(2-methoxyphenylsulfonyl)-1-oxa-8-azaspiro[4.5]decan-3-ylamino)propoxy)-N-methylbenzenesulfonamide]",51.3 nM
15,"CNS(=O)(=O)c1cccc(OC[C@@H](O)CNC2COC3(CCN(S(=O)(=O)c4cnc5c(c4)N(C)CCO5)CC3)C2)c1 (stereo partly drawn) [Compound 399, 3-((2S)-2-hydroxy-3-(8-(1-methyl-2,3-dihydro-1H-pyrido[2,3-b][1,4]oxazin-7-ylsulfonyl)-1-oxa-8-azaspiro[4.5]decan-3-ylamino)propoxy)-N-methylbenzenesulfonamide]",20.2 nM
16,"CNS(=O)(=O)c1cccc(OC[C@@H](O)CNC2COC3(CCN(S(=O)(=O)c4cc5c(nc4Cl)OCCN5C)CC3)C2)c1 (stereo partly drawn) [Compound 400, 3-((2S)-3-(8-(6-chloro-1-methyl-2,3-dihydro-1H-pyrido[2,3-b][1,4]oxazin-7-ylsulfonyl)-1-oxa-8-azaspiro[4.5]decan-3-ylamino)-2-hydroxypropoxy)-N-methylbenzenesulfonamide]",33.1 nM
17,"CCOc1nc2c(cc1S(=O)(=O)N1CCC3(CC1)CC(NC[C@H](O)COc1cccc(S(=O)(=O)NC)c1)CO3)N(C)CCO2 (stereo partly drawn) [Compound 401, 3-((2S)-3-(8-(6-ethoxy-1-methyl-2,3-dihydro-1H-pyrido[2,3-b][1,4]oxazin-7-ylsulfonyl)-1-oxa-8-azaspiro[4.5]decan-3-ylamino)-2-hydroxypropoxy)-N-methylbenzenesulfonamide]",25.3 nM
18,"CNS(=O)(=O)c1cccc(OC[C@@H](O)CNC2COC3(CCN(S(=O)(=O)c4ccc(-c5ccccn5)cc4)CC3)C2)c1 (stereo partly drawn) [Compound 402, 3-((2S)-2-hydroxy-3-(8-(4-(pyridin-2-yl)phenylsulfonyl)-1-oxa-8-azaspiro[4.5]decan-3-ylamino)propoxy)-N-methylbenzenesulfonamide]",20.4 nM
19,"CNS(=O)(=O)c1cccc(OC[C@@H](O)CNC2COC3(CCN(S(=O)(=O)c4ccc(-c5ccc(CN)cc5)cc4OC(F)(F)F)CC3)C2)c1 (stereo partly drawn) [Compound 403, 3-((2S)-3-(8-(4′-(aminomethyl)-3-(trifluoromethoxy)biphenyl-4-ylsulfonyl)-1-oxa-8-azaspiro[4.5]decan-3-ylamino)-2-hydroxypropoxy)-N-methylbenzenesulfonamide]",80.6 nM
